In US11504385B2, “Proteolysis targeting chimeric molecule, preparation method, and application” (CHINA PHARMACEUTICAL UNIVERSITY, priority 2019, dated 2022):

Tests used:
[1] = target: T1, BCR-ABL fusion protein (Homo sapiens, UniProt P00519+P11274+Q96SW2, E27K); experiment: Immunoblotting, degradation of BCR-ABL protein in K562 cells; format: cell-based
T1 construct: By using BCR-ABL and CRBN positive K562 cell lines; endogenous in cells; host or cells: K562
Protocol: (§1) Initially, researchers synthesized a 2C compound (FIG. 2A), which is a small molecule with the shortest joining chain (n=1). By using BCR-ABL and CRBN positive K562 cell lines, degradation of ABL and BCR-ABL proteins in the cells under the action of the compound was tested by immunoblotting. […] Then, the researchers tried to extend the joining chain (increasing the value of n).
(§2) In order to test the degradation effect of the compound 4C on c-ABL and BCR-ABL proteins in K562 cells, the researchers performed an immunoblotting experiment. […] In order to exclude the possibility that the compound 4C affected the ABL gene to generate false positive expression, the researchers used RT-qPCR in K562 cells to study the expression of the ABL gene.
The operation method of the immunoblotting experiment is as follows: […]
(§3) The medium was aspirated from the culture; the cells were washed with 1*PBS; and the cells were aspirated.
(§4) A weak RIPA lysate (100 μL) was added to lyse the cells for 40 min.
(§5) The sample was centrifuged at 13000 rpm, 4° C. for 15 min; 80 μl of supernatant was taken and added to 20 μl of loading buffer; the reaction solution was heated at 100° C. for 8 minutes; and the sample was placed on ice and cooled.
(§6) […] of sample was loaded on 10% SDS-PAGE gel. The sample was transferred to a PVDF membrane by a wet process.
(§7) A membrane was placed in 25 ml of blocking buffer and blocked at room temperature for 1 hour.
(§8) The membrane and the primary antibody (according to the appropriate dilution and diluent recommended in the product description) were placed in 10 ml of primary antibody dilution buffer, and incubated overnight at 4° C. and gently shaken from time to time.
(§9) Anti-rabbit IgG, HRP-linked Antibody (#7074, in a ratio of 1:2000) and anti-biotin, HRP-linked Antibody (#7075, in a ratio of 1:1000-1:3000) are diluted with 10 ml of blocking buffer to detect biotinylated protein standards. The membrane was incubated with the diluent, and gently shaken and incubated at room temperature for 1 hour.
(§10) A developer solution and the membrane were incubated together for 1 minute, the excess solution was discarded (the membrane remained moist) and the membrane was exposed.
(§11) Next, we tested the difference in the activity of different configurations of compound 4C in degradation of ABL and BCR-ABL proteins. […] The operation method of the immunoblotting experiment is the same as above.

[2] = target: T2, ABL (Homo sapiens, UniProt P00519); experiment: Immunoblotting, degradation of ABL protein in K562 cells; format: cell-based
T2 construct: degradation effect of the compound 4C on c-ABL and BCR-ABL proteins in K562 cells; endogenous in cells; host or cells: K562
Protocol: as §1, §2
The operation method of the immunoblotting experiment is as follows:
K562 cells after administration were incubated for 24 hours.
as §3, §4, §5, §6, §7, §8, §9, §10, §11

[3] = test system: K562 cells; experiment: Anti-K562 cell proliferation activity test (CCK-8); format: cell-based; details: Homo sapiens, 48 hours, read-out: median inhibitory concentration (IC50)
Protocol: The operation method of the anti-K562 cell proliferation activity test is as follows:
100 μL of K562 cell suspension and 10 μL of test compounds of different concentrations were prepared in a 96-well plate. The culture plate was placed in an incubator for incubation for 48 hours (37° C., 5% CO2). 10 μL of CCK-8 solution was added to each well. The culture plate was placed in an incubator for incubation for 1-4 hours. The absorbency was measured at 450 nm with a microplate reader. […] (%)=[A (with drug)−A (blank)]/[A (with 0 drug)−A (blank)]×100, wherein:
A (with drug): the absorbency of the wells containing cells, CCK-8 solution and drug solution
A (blank): the absorbency of wells containing medium and CCK-8 solution but no cells
A (with 0 drug): the absorbency of the wells containing cells and CCK-8 solution but no drug solution

[4] = test system: A549; experiment: Cell viability test (CellTiter-Glo), A549; format: cell-based; details: A549, non-BCR-ABL dependent tumor cell line
Protocol: (§12) The operation method of the K562 cell viability test is as follows:
(§13) 50 μL of K562, MCF-7, HCT116 and A549 cell suspensions were added to a 96-well plate and incubated for 12 hours. 10 μL of compound was added to the well and incubated for 48 hours. Operation was performed according to a CellTiter-Glo® luminescent cell viability assay kit (Promega). Nonlinear regression analysis data in GraphPad Prism 6 was used.

[5] = test system: HCT116; experiment: Cell viability test (CellTiter-Glo), HCT116; format: cell-based; details: HCT116, non-BCR-ABL dependent tumor cell line
Protocol: as §12, §13

[6] = test system: MCF-7 breast cancer; experiment: Cell viability test (CellTiter-Glo), MCF-7; format: cell-based; details: non-BCR-ABL dependent tumor cell line
Protocol: as §12, §13

[7] = Photo-isomerization by UV-Vis absorption spectrum; format: physicochemical
Protocol: Then, we explored the photodynamic characteristics of the compound 4C through UV-Vis absorption spectrum. […] In addition, since the compound 4C is a T-type optical switch, the cis configuration underwent self-heating relaxation under dark conditions to transform into the trans configuration, and T½ was about 10 hours at 25° C.

[8] = target: T1, BCR-ABL fusion protein; experiment: Simulated light control, BCR-ABL level in K562 cells (immunoblotting); format: cell-based; details: 100 nM for 24 hours, then fresh medium
Protocol: (§14) In order to simulate a light control process, the researchers treated K562 cells with the compound 4C-trans for 24 hours. Then the cells were transferred to fresh media and divided into 2 groups: one group was placed in a dark room (VIS group), and the other group was irradiated with UV after 0, 4, 8, 12, 16, and 24 hours of incubation to simulate the photo-isomerization process (UV group).
(§15) The specific operation method for simulating light control is as follows:
(§16) The compound 4C-trans at a final concentration of 100 nM was added to K562 cells, and the cells were incubated at 37° C. for 24 hours. The medium was washed off, and the cells were washed 2 times with 1*PBS. Then the cells were transferred to fresh 1640 medium (10% FBS, 1*glutamine) for culture, and divided into two groups: one group was placed in a dark room, and the other group was irradiated with UV-C light for 30 min every 4 hours. The cells were collected after transfer and incubation for 0, 4, 8, 16, and 24 hours respectively, and post-treatment of the cells was the same as that of immunoblotting.

[9] = target: T2, ABL; experiment: Simulated light control, ABL level in K562 cells (immunoblotting); format: cell-based; details: 100 nM for 24 hours, then fresh medium
Protocol: as §14, §15, §16

[10] = UV-C 30 min every 4 hours (UV group)
[11] = dark room (VIS group), 0-24 hours

T2 sequence (P00519 whole entry): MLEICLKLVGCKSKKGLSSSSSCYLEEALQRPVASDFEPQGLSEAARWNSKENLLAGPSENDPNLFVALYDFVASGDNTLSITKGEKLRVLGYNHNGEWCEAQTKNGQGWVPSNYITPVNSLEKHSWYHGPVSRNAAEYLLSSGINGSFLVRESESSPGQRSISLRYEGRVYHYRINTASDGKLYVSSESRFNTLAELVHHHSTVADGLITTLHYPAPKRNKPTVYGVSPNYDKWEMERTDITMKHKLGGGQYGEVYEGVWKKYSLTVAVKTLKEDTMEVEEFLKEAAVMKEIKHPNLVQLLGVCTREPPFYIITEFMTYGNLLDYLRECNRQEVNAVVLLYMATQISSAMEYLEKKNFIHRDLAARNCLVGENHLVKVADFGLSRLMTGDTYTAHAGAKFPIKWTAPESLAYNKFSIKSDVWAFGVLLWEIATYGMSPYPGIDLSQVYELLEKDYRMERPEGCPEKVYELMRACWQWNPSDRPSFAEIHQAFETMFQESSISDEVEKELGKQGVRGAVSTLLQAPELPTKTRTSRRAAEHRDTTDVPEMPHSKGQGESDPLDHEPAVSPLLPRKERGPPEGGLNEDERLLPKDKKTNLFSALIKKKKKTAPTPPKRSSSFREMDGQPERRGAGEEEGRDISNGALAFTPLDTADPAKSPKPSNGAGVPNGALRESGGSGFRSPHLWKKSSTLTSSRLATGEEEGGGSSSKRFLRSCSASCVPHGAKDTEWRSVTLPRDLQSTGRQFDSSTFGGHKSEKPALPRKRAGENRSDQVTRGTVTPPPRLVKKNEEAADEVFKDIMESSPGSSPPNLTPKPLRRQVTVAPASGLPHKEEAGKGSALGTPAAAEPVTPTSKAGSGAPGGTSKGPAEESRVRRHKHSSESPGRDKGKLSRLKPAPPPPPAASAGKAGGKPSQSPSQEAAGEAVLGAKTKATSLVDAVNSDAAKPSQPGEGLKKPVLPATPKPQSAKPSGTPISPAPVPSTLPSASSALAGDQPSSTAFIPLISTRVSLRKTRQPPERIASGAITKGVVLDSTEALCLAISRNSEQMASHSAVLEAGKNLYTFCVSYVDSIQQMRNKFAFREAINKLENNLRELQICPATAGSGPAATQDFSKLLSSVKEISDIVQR

inhibition of expression of BCR-ABL and/or CRBN protein ([1]; BCR-ABL and/or CRBN positive leukemia K562 cells, to varying degrees): can inhibit the expression
activity in degrading the BCR-ABL fusion protein, compared among the PROTAC molecules ([1]; K562 cells): best activity
degradation of BCR-ABL fusion protein, dose-effect ([1]; K562 cells, 25 nM, 24 hours of incubation): slightly degrade
time at which BCR-ABL reached the maximum degradation ([1]; K562 cells, 250 nM): 32 h
BCR-ABL level, time-effect ([1]; K562 cells, 250 nM, after 4 hours): slight decrease
BCR-ABL level, time-effect ([1]; K562 cells, 250 nM, after 10 hours): significantly degraded
BCR-ABL level, time-effect ([1]; K562 cells, 250 nM, after 10 hours, listed as 4C-trans): significantly reduced
BCR-ABL fusion protein degraded, time-effect ([1]; K562 cells, 250 nM, after 32 hours): more than 90%
BCR-ABL degraded, dose-effect ([1]; K562 cells, 500 nM, 24 hours of incubation): more than 80%
time at which ABL reached the maximum degradation ([2]; 250 nM): 32 h
ABL level, time-effect ([2]; 250 nM, 4 hours of incubation): significantly reduced
c-ABL level, time-effect ([2]; 250 nM, after 10 hours): significantly degraded
ABL protein degraded, dose-effect ([2]; 500 nM, 24 hours of incubation): almost all
IC50 [3]: 68 nM
reversibility of the photosensitive switch (stability) ([7]; irradiated with ultraviolet light and white light in turn for 5 times): still relatively stable
BCR-ABL level after washout [8, 10]: increased over time
BCR-ABL fusion protein level after washout [8, 11]: remained at a low level
ABL level after washout [9, 10]: increased over time
ABL level after washout [9, 11]: almost disappeared
SMILES: Cc1nc(Nc2ncc(C(=O)Nc3c(C)cccc3Cl)s2)cc(N2CCN(CCCCOc3ccc(/N=N/c4ccc(C(=O)Nc5cccc6c5CN(C5CCC(=O)NC5=O)C6=O)cc4)cc3)CC2)n1 (centres unmarked) [Compound 4C, (E)-N-(2-chloro-6-methylphenyl)-2-((6-(4-(4-(4-((4-((2-(2,6-dioxopiperidin-3-yl)-1-oxoisoindolin-4-yl)carbamoyl)phenyl)diazenyl)phenoxy)butyl)piperazin-1-yl)-2-methylpyrimidin-4-yl)amino)thiazole-5-carboxamide]
effect on cell viability [4]: hardly affects
effect on cell viability [5]: hardly affects
effect on cell viability [6]: hardly affects
transformation from trans to cis configuration (absorbency-time curve at 361 nm) ([7]; UV irradiation for 1 hour): almost completely transformed to the cis configuration
